Measurements: publication PMC11659602, “Discovering covalent cyclic peptide inhibitors of peptidyl arginine deiminase 4 (PADI4) using mRNA-display with a genetically encoded electrophilic warhead” (Communications Chemistry, 2024)
Where two headings read alike, the source gives them in different places. *1 amine or outer side, *2 acyl side, *3 side chain or, on linkers, in order; H or OH if unused. Where a SMILES comes first, the peptide text is derived from it. Bridges are numbered along the chain shown (N, C = ends). [ ]: non-standard residue; d: D form. Orn(fluoroacetimidoyl) = N=C(CF)NCCC[C@H](N)C(=O)O; Orn(acetimidoyl) = CC(=N)NCCC[C@H](N)C(=O)O; X1 = N=C(CCl)NCCC[C@H](N[*:1])C(=O)[*:2]; Cit = NC(=O)NCCC[C@H](N)C(=O)O

Assays:
[1] = molecular target: T1, PADI4 (Homo sapiens, UniProt Q9UM07); assay: COLDER inhibition assay, BAEE substrate, with or without 1 h preincubation; format: biochemical; details: for remaining activity at 0.1 µM: peptide 0.1 µM; for IC50: COLDER; for remaining activity at 0.01 µM: peptide 0.01 µM; for remaining activity at 0.03 µM: peptide 0.03 µM; for remaining activity at 0.3 µM: peptide 0.3 µM; for remaining activity at 1 µM: peptide 1 µM; for remaining activity at 10 µM: peptide 10 µM; for remaining activity at 30 µM: peptide 30 µM; for remaining activity at 50 µM: peptide 50 µM; for remaining activity at 0.003 µM: peptide 0.003 µM; for remaining activity at 3 µM: peptide 3 µM
T1 construct: His6; made in house
Protocol: PADI4 citrullination activity was analysed using the COLDER assay in 96-well plates. Peptide dilutions were prepared from a 500 µM stock, to give a 10 times concentrated dilution series (500 µM, 300 µM, 100 µM, 30 µM, 10 µM, 3 µM, 1 µM, 0.3 µM, 0.1 µM and 0.03 µM) in COLDER buffer (50 mM HEPES, 150 mM NaCl and 2 mM DTT, pH 7.5) containing 1% DMSO. In triplicate, each was diluted 10-fold further when mixed with 50 nM His-PADI4, 0.6 mg/mL BSA and 10 mM CaCl2, in COLDER buffer. With or without one hour of incubation, 10 mM N^α-Benzoyl-L-arginine ethyl ester hydrochloride (BAEE, Merck) was added to initiate the reaction (50 µL final volume). After 30 min at rt, EDTA (50 mM final concentration) was used to quench the reaction and 200 µL of COLDER solution containing 20 mM Diacetyl monoxime/2,3-butanedione monoxime (Merck), 0.5 mM Thiosemicarbazide (Acros Organics), 2.25 M H3PO4, 4.5 M H2SO4 and 1.5 mM NH4Fe(SO4)2.12H2O was added to each well. Samples were incubated for 20 min at 95 °C before measuring absorbance at 540 nm on a CLARIOstar Plus (BMG LABTECH). Data analysis was performed with GraphPad Prism. Data are presented as the average ± standard error of the mean from at least two independent replicates.

[2] = molecular target: T1, PADI4; assay: Surface plasmon resonance (SPR), single cycle kinetics; format: binding; details: for Ki: k-1/k+1; for Kd: reversible binding, 1:1 binding model
Protocol: S8. Surface plasmon resonance (SPR)
Using a Biacore S200 (GE Healthcare), biotinylated His-PADI4 (80 nM) was immobilised on a CAP chip (GE Healthcare) to a response unit of approx. 3000. At 25 °C, single cycle kinetics mode was used with 5 samples of a 3-fold dilution series of peptides PADI4_3_H4(2), cP4_2, […]
mM HEPES, 150 mM NaCl, 10 mM CaCl2, 0.05% Tween-20, 0.1% DMSO (pH 7.5). After each cycle, regeneration of the chip was carried out as per the manufacturer’s protocol. Data were analysed with the Biacore S200 Evaluation Software, each in triplicate. Warhead-containing peptides were analysed using the two-state reaction model, with the rate constant for the reverse second step (k-2) set to zero. The equilibrium constant of the reversible binding step, Ki, was calculated as the ratio of k-1/k+1 and the rate constant of the irreversible chemical step, kinact, as k+2. The Arg4, Cit4 and Me4 peptides were fitted using a 1:1 binding model. […]

[3] = 1 h preincubation of peptide and PADI4, 10 mM CaCl2, read-out: IC50 Values 1 h preincubation
[4] = no preincubation of peptide and PADI4, 10 mM CaCl2, read-out: IC50 Values 0 h preincubation
[5] = no preincubation, read-out: PADI4 activity, normalised (Figure 4b dose-response)
[6] = two-state reaction model, k+2, read-out: SPR kinact (converted)
[7] = 1 h, T=1 (1 h preincubation), read-out: PADI4 activity, dose-response data of Figure S15 (individual replicates)
[8] = T=0 (no preincubation), read-out: PADI4 activity, dose-response data of Figure S15 (individual replicates)

T1 sequence (Q9UM07 whole entry): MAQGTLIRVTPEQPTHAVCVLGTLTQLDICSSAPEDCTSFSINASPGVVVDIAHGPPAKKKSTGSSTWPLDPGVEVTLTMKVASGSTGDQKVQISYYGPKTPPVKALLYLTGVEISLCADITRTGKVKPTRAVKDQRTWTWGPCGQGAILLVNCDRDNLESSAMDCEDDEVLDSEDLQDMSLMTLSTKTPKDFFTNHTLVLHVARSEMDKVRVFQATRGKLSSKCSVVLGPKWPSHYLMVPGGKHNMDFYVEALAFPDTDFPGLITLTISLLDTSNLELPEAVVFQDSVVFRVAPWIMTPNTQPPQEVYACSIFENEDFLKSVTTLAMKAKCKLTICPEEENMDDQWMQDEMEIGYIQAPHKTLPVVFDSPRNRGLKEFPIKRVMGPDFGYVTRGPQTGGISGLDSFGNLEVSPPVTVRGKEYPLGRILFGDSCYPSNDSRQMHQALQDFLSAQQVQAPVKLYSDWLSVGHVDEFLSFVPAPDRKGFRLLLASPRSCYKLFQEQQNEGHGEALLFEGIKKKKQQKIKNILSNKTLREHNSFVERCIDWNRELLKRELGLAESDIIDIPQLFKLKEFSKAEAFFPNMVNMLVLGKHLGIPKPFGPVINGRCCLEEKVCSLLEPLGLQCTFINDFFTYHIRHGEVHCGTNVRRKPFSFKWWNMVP

Compound	IC50 [1, 3] [nM]	IC50 [1, 4] [nM]	remaining activity at 0.01 µM [1, 5] [%]	remaining activity at 0.03 µM [1, 5] [%]	remaining activity at 0.1 µM [1, 5] [%]	remaining activity at 0.3 µM [1, 5] [%]	remaining activity at 1 µM [1, 5] [%]	remaining activity at 10 µM [1, 5] [%]	remaining activity at 30 µM [1, 5] [%]	remaining activity at 50 µM [1, 5] [%]	kinact [2, 6] [s⁻¹]	Ki ([2]; two-state reaction model) [nM]	remaining activity at 0.003 µM [1, 5] [%]	remaining activity at 3 µM [1, 5] [%]	Kd [2] [nM]	also measured
CC[C@H](C)[C@@H]1NC(=O)[C@H](CCCNC(=N)N)NC(=O)[C@H](Cc2ccc(O)cc2)NC(=O)[C@H](CCCNC(=N)N)NC(=O)[C@H](CCC(=O)O)NC(=O)[C@H](CCCNC(=N)CF)NC(=O)[C@H](CC(N)=O)NC(=O)[C@H](CC(C)C)NC(=O)[C@@H](Cc2ccc(O)cc2)NC(=O)CSC[C@@H](C(=O)NCC(N)=O)NC(=O)[C@H](CO)NC1=O [cP4_18] ({CH2CO}-[dY]LN[Orn(fluoroacetimidoyl)]ERYRISCG-NH2; thioether N-11)	180	–	–	–	–	–	–	–	–	–	0.00317	810 ± 80	–	–	–	remaining activity at 0.003 µM [1, 7]: 101%; remaining activity at 0.01 µM [1, 7]: 99.7%; remaining activity at 0.03 µM [1, 7]: 95.4%; remaining activity at 0.1 µM [1, 7]: 77.6%; remaining activity at 0.3 µM [1, 7]: 35.4%; remaining activity at 1 µM [1, 7]: 10%; remaining activity at 0.003 µM [1, 8]: 106%; remaining activity at 0.01 µM [1, 8]: 108%; remaining activity at 0.03 µM [1, 8]: 107%; remaining activity at 0.1 µM [1, 8]: 110%; remaining activity at 0.3 µM [1, 8]: 107%; remaining activity at 1 µM [1, 8]: 102%; remaining activity at 3 µM [1, 8]: 94.6%; remaining activity at 10 µM [1, 8]: 64.3%; remaining activity at 30 µM [1, 8]: 31.1%; remaining activity at 50 µM [1, 8]: 21.4%; k2 / kinact ([2]; each replicate): 0.0019 s⁻¹; kinact ([2]; each replicate, read-out: k2 / kinact): 0.0027 s⁻¹
N=C(N)NCCC[C@@H]1NC(=O)[C@H](CCCNC(N)=O)NC(=O)[C@H](CC(=O)O)NC(=O)[C@H](Cc2ccc(O)cc2)NC(=O)[C@H](CCCCN)NC(=O)[C@H](CO)NC(=O)[C@@H](Cc2ccc(O)cc2)NC(=O)CSC[C@@H](C(=O)NCC(N)=O)NC(=O)[C@H](CC(=O)O)NC(=O)[C@H](CCCNC(=N)N)NC(=O)[C@@H]2CCCN2C(=O)[C@H](CO)NC1=O [Cit4] ({CH2CO}-[dY]SKYD[Cit]RSPRDCG-NH2; thioether N-12)	–	> 100000	–	95.6	99.7	103	–	108	103	107	–	–	96.7	101	> 10000	–
N=C(N)NCCC[C@@H]1NC(=O)[C@H](CC(=O)O)NC(=O)[C@H](Cc2ccc(O)cc2)NC(=O)[C@H](CCCCN)NC(=O)[C@H](CO)NC(=O)[C@@H](Cc2ccc(O)cc2)NC(=O)CSC[C@@H](C(=O)NCC(N)=O)NC(=O)[C@H](CC(=O)O)NC(=O)[C@H](CCCNC(=N)N)NC(=O)[C@@H]2CCCN2C(=O)[C@H](CO)NC(=O)[C@H](CCCNC(=N)N)NC1=O [Arg4] ({CH2CO}-[dY]SKYDRRSPRDCG-NH2; thioether N-12)	–	> 100000	–	–	–	101	–	–	–	–	–	–	–	–	2000 ± 200	–

More lines, main results first:

IC50 [1, 3] [nM]	IC50 [1, 4] [nM]	remaining activity at 0.01 µM [1, 5] [%]	remaining activity at 0.03 µM [1, 5] [%]	remaining activity at 0.1 µM [1, 5] [%]	remaining activity at 0.3 µM [1, 5] [%]	remaining activity at 1 µM [1, 5] [%]	remaining activity at 10 µM [1, 5] [%]	remaining activity at 30 µM [1, 5] [%]	remaining activity at 50 µM [1, 5] [%]	kinact [2, 6] [s⁻¹]	Ki ([2]; two-state reaction model) [nM]	remaining activity at 0.003 µM [1, 5] [%]	remaining activity at 3 µM [1, 5] [%]	Kd [2] [nM]	Compound	also measured
66 ± 9	8200 ± 800	85.9	90.5	86.7	86.6	82.4	34.1	12.5	6.56	0.00467	4000 ± 200	–	–	–	N=C(N)NCCC[C@@H]1NC(=O)[C@H](CCCNC(=N)CCl)NC(=O)[C@H](CC(=O)O)NC(=O)[C@H](Cc2ccc(O)cc2)NC(=O)[C@H](CCCCN)NC(=O)[C@H](CO)NC(=O)[C@@H](Cc2ccc(O)cc2)NC(=O)CSC[C@@H](C(=O)NCC(N)=O)NC(=O)[C@H](CC(=O)O)NC(=O)[C@H](CCCNC(=N)N)NC(=O)[C@@H]2CCCN2C(=O)[C@H](CO)NC1=O [Cl4] ({CH2CO}-[dY]SKYD[X1]RSPRDCG-NH2; thioether N-12)	remaining activity at 0.1 µM ([1]; 1 h, T = 1 h preincubation, read-out: PADI4 activity, normalised (Figure 4b dose-response)): 27.3%; kinact/KI [2]: 1170 M⁻¹ s⁻¹
–	> 20000	92.6	96.4	92.1	93.7	86.6	–	41.5	25.9	–	–	91	84.6	1700 ± 400	CC(=N)NCCC[C@@H]1NC(=O)[C@H](CC(=O)O)NC(=O)[C@H](Cc2ccc(O)cc2)NC(=O)[C@H](CCCCN)NC(=O)[C@H](CO)NC(=O)[C@@H](Cc2ccc(O)cc2)NC(=O)CSC[C@@H](C(=O)NCC(N)=O)NC(=O)[C@H](CC(=O)O)NC(=O)[C@H](CCCNC(=N)N)NC(=O)[C@@H]2CCCN2C(=O)[C@H](CO)NC(=O)[C@H](CCCNC(=N)N)NC1=O [Me4] ({CH2CO}-[dY]SKYD[Orn(acetimidoyl)]RSPRDCG-NH2; thioether N-12)	–
